Consider 17 molecules from US20230373934A1, “ANDROGEN RECEPTOR MODULATORS AND METHODS FOR THEIR USE” (ESSA Pharma, Inc., priority 2022, published 2023).

Bounds are passed on as bounds.

For data set [1], the target named is T1, androgen receptor (AR) (Homo sapiens, UniProt P10275, T878A).
T1 construct: endogenous in cells; host or cells: LNCaP
T1 sequence (P10275 1-920 T878A): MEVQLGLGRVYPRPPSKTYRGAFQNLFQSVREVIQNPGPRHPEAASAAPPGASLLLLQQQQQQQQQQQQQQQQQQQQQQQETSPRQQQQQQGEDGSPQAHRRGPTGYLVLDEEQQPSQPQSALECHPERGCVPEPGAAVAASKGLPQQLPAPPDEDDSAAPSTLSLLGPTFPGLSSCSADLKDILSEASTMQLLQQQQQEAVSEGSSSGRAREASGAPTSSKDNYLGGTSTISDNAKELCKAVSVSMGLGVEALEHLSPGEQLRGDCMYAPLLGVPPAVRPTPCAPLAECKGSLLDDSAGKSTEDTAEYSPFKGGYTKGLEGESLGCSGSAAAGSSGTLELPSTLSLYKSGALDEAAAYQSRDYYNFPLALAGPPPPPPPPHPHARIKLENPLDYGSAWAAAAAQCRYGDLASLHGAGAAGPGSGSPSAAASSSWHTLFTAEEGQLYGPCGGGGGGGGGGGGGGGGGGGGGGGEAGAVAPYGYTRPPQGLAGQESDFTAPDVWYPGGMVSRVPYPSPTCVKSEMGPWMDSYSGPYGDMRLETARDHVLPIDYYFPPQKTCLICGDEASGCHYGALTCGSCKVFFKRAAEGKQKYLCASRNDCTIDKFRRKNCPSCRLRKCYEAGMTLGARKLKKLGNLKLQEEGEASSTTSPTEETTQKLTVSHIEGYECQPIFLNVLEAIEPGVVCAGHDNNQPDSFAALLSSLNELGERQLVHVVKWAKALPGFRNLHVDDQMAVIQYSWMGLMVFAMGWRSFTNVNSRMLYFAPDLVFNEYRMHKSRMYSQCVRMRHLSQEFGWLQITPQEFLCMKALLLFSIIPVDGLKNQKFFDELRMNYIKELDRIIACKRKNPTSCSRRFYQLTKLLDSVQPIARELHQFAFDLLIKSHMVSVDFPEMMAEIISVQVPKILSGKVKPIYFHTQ
Kind of data set: Androgen-induced PSA-luciferase assay, Luciferase Assay A (LNCaP transiently transfected with PSA (6.1 kb)-luciferase reporter). To be noted: LNCaP cells, 1 h pretreatment, R1881 (1 nM) 24 h, read-out: PSA-Luc IC50 Range. The format is cell-based. An outline of the steps:
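LNCaP cells transfected 24 h with PSA (6.1 kb)-luciferase reporter, pretreated 1 h with compound, then stimulated 24 h with R1881 (1 nM). Firefly luminescence in lysates normalized to protein content; IC50 from activity relative to R1881-induced vehicle control.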

Data set [2] is described as follows: Microsomal stability assay, liver microsome half-life (rat). As to conditions: pH 7.4; rat liver microsomes 0.5 mg/mL + NADPH, 1 μM compound, 37° C; read-out: Liver microsome + NADPH T½ (min) Rat. The format is in vitro ADME. The source says: (§1) Microsomal Stability Assay: Microsomal stability assay is a widely used in vitro model to characterize the metabolic conversion by phase I enzymes, such as cytochrome P450 (CYP) enzymes. Since metabolism is known to be highly variable in different species, microsomal stability assay is commonly run in multiple species. Metabolic stability of testing compound can be evaluated using human, rat, mouse, or other animal liver or intestine microsomes to predict intrinsic clearance.
(§2) The assay was carried out in 96-well microtiter plates at 37° C. Reaction mixtures (25 μL) contained a final concentration of 1 μM test compound, 0.5 mg/mL liver microsomes protein, and 1 mM NADPH and/or 1 mM UDPGA (with alamethicin) in 100 mM potassium phosphate, pH 7.4 buffer with 3 mM MgCl2. The incubation was done with N=1, but duplicate incubation at each time point can be prepared if necessary. At each of the time points (for example, 0, 15, 30, and 60 minutes), 150 μL of quench solution (100% acetonitrile with 0.1% formic acid) with internal standard was transferred to each well. Besides the zero minute controls, mixtures containing the same components except the NADPH can also be prepared as the negative control. Verapamil was included as a positive control to verify assay performance. Plates were sealed, vortexed, and centrifuged at 4° C. for 15 minutes at 4000 rpm. The supernatant is transferred to fresh plates for LC/MS/MS analysis.
(§3) Summarized conditions: [Compound]=1 μM, [LM]=0.5 mg/mL, [NADPH]=1 mM and/or [UDPGA]=1 mM, Buffer=100 mM Potassium Phosphate, pH 7.4 with 3 mM MgCl2, Time=0, 15, 30, and 60 min, and Temperature=37° C.
(§4) All samples were analyzed on LC/MS/MS using an AB Sciex API 4000 instrument, coupled to a Shimadzu LC-20AD LC Pump system. Analytical samples were separated using a Waters Atlantis T3 dC18 reverse phase HPLC column (20 mm×2.1 mm) at a flow rate of 0.5 mL/min. The mobile phase consisted of 0.1% formic acid in water (solvent A) and 0.1% formic acid in 100% acetonitrile (solvent B).
(§5) The extent of metabolism is calculated as the disappearance of the test compound, compared to the 0-min time incubation. Initial rates are calculated for the compound concentration and used to determine half-life (t1/2).

Data set [3] can be described thus: Microsomal stability assay, liver microsome half-life (mouse). Type of data set: in vitro ADME. To be noted: pH 7.4; mouse liver microsomes 0.5 mg/mL + NADPH, 1 μM compound, 37° C; read-out: Liver microsome + NADPH T½ (min) Mouse.
From the text: as §1, §2, §3, §4, §5

A short description of data set [4]: Microsomal stability assay, liver microsome half-life (monkey). Type of data set: in vitro ADME. As to conditions: pH 7.4; monkey liver microsomes 0.5 mg/mL + NADPH, 1 μM compound, 37° C; read-out: Liver microsome + NADPH T½ (min) Monkey.
From the text: as §1, §2, §3, §4, §5

Data set [5] in a line: Microsomal stability assay, liver microsome half-life (human). As to conditions: pH 7.4; human liver microsomes 0.5 mg/mL + NADPH, 1 μM compound, 37° C; read-out: Liver microsome + NADPH T½ (min) Human. The format is in vitro ADME.
From the text: as §1, §2, §3, §4, §5

A short description of data set [6]: Microsomal stability assay, liver microsome half-life (dog). As to conditions: pH 7.4; dog liver microsomes 0.5 mg/mL + NADPH, 1 μM compound, 37° C; read-out: Liver microsome + NADPH T½ (min) Dog. Type of data set: in vitro ADME.
From the text: as §1, §2, §3, §4, §5

Data set [7] deals with T2, androgen receptor (AR) (Homo sapiens, UniProt P10275).
T2 sequence (P10275 1-920 T878A): T1 sequence (P10275 1-920 T878A)
The experiment in a line: Androgen-induced PSA-luciferase assay, Luciferase Assay B (cells stably expressing ARR2PB or PSA-firefly luciferase reporter, 384-well). As to conditions: Luciferase Assay B (Compounds A186-A219 and A221-A245); stable luciferase reporter cells, 1 h pretreatment, R1881 24 h, serum-free; read-out: PSA-Luc IC50 Range. The format is cell-based. The method, then: Luciferase Assay B: Cells stably expressing probasin promoter (ARR2PB) or human prostate-specific antigen (PSA)-firefly luciferase reporter were plated in poly-D-lysine-coated 384-well plates. 48 h after plating, cells were pretreated with vehicle or compounds for 1 h before adding R1881 under serum-free and phenol red-free conditions and then further incubated for 24 h. R1881 was added only for LNCaP cells. Firefly luciferase activities were determined by EnVision plate reader (Perkinemer) using the Steady-Glo Luciferase Reporter Assay System (Promega). Values were normalized to protein content. GraphPad Prism graphing software was used to calculate IC50 values. Luciferase Assay B was run for Compounds A186-A219 and A221-A245 in Table 2.
Statistical analyses were performed using GraphPad Prism (Version 6.01 for Windows; La Jolla, CA, USA). Comparisons between treatment and control groups were compared using Two-Way ANOVA with post-hoc Dunnett's and Tukey's tests. Differences were considered statistically significant at P values less than 0.05.

In the case of `CC(C)(c1ccc(-c2ccc(CNS(C)(=O)=O)nc2)cc1)c1cc(Cl)c(OCCCl)c(C#N)c1` [Compound A1], the IC50 in data set [1] fell in the range of 0.5 to 2 µM. The half-life at 1 μM is 61 min in data set [2]; above 120 min in data set [3]; above 120 min in data set [4]; above 120 min in data set [5]; 62 min in data set [6].

For `CC(C)(c1ccc(-c2ccc(N3CC(NS(C)(=O)=O)C3)nc2)cc1)c1cc(Cl)c(OCCCl)c(C#N)c1` [Compound A11], in data set [1], the IC50 fell in the range of 0.5 to 2 µM. The half-life at 1 μM in data set [2] was 103 min; in data set [3] it was above 120 min; in data set [4], 28 min; in data set [5] it was 58 min; in data set [6], above 120 min.

Consider `CC(C)(c1ccc(-c2cnn(CCNS(C)(=O)=O)c2)cc1)c1cc(Cl)c(OCCCl)c(C#N)c1` [Compound A12], for which the IC50 in data set [1] fell in the range of 0.5 to 2 µM. In addition, the half-life at 1 μM in data set [2] is 72 min; in data set [3], above 120 min; in data set [4] it was 19 min; in data set [5] it was 82 min; in data set [6], above 120 min.

As to `CC(C)(c1ccc(OC[C@H]2C[C@H](NS(C)(=O)=O)C2)cc1)c1cc(Cl)c(OCCCl)c(C#N)c1` [Compound A15, N-((1r,3r)-3-((4-(2-(3-chloro-4-(2-chloroethoxy)-5-cyanophenyl)propan-2-yl)phenoxy)methyl)cyclobutyl)methanesulfonamide], the concentration for half-maximal inhibition (IC50) in data set [1] fell in the range of 0.5 to 2 µM. Further, the half-life at 1 μM in data set [2], in data set [3], in data set [4], in data set [5] and in data set [6] was above 120 min in each case.

For `CS(=O)(=O)Nc1cnc2cc(-c3ccc(Oc4cc(Cl)c(OCCCl)c(C#N)c4)cc3)ccc2n1` [Compound A16, N-(6-(4-(3-chloro-4-(2-chloroethoxy)-5-cyanophenoxy)phenyl)quinoxalin-2-yl)methanesulfonamide], the IC50 in data set [1] lay in the range of 0.5 to 2 µM. For the same molecule, the half-life at 1 μM in data set [2], in data set [3], in data set [4], in data set [5] and in data set [6] was above 120 min throughout.

In the case of `COc1c(Cl)cc(C(C)(C)c2ccc(OCc3ccnc(NS(C)(=O)=O)n3)cc2)cc1C#N` [Compound A17, N-(4-((4-(2-(3-chloro-5-cyano-4-methoxyphenyl)propan-2-yl)phenoxy)methyl)pyrimidin-2-yl)methanesulfonamide], in data set [1], the 50% inhibitory concentration (IC50) lay in the range of 0.5 to 2 µM. For the same molecule, the half-life at 1 μM in data set [2], in data set [3], in data set [4], in data set [5] and in data set [6] was above 120 min in each case.

On to `CN(c1ccc(OCc2ccnc(NS(C)(=O)=O)n2)cc1)c1cc(Cl)c(OC2CC2)c(C#N)c1` [Compound A237], for which the IC50 in data set [7] is 0.5 to 2 µM.

Consider `CS(=O)(=O)Nc1nccc(COc2ccc(N(CC(F)(F)F)c3cc(Cl)c(OCCCl)c(C#N)c3)cc2)n1` [Compound A238], for which the IC50 in data set [7] was below 0.5 µM.

For the molecule `CN(c1cnc2cc(-c3ccc(N(CC(F)(F)F)c4cnc(OC5CC5)c(C#N)c4)cc3)ccc2n1)S(C)(=O)=O` [Compound A239], the IC50 in data set [7] was below 0.5 µM.

For `N#Cc1cc(Oc2ccc(-c3ccc4nc(N5CCNCC5)cnc4c3)cc2)cc(Cl)c1OC1CC1` [Compound A240], the concentration for half-maximal inhibition (IC50) in data set [7] is above 2 µM.

In the case of `N#Cc1cc(Oc2ccc(-c3ccc4nc(N5CCNCC5)ncc4c3)cc2)cc(Cl)c1OC1CC1` [Compound A241], in data set [7], the 50% inhibitory concentration (IC50) was above 2 µM.

Consider `CC(=O)N1CCN(c2cnc3cc(-c4ccc(Oc5cc(Cl)c(OC6CC6)c(C#N)c5)cc4)ccc3n2)CC1` [Compound A242], for which the IC50 in data set [7] fell in the range of 0.5 to 2 µM.

Turning to `CC(C)(c1ccc(OCc2ccnc(N3CCNCC3)n2)cc1)c1cc(Cl)c(OC2CC2)c(C#N)c1` [Compound A243], the IC50 in data set [7] was 0.5 to 2 µM.

On to `CC(=O)N1CCN(c2nccc(COc3ccc(C(C)(C)c4cc(Cl)c(OC5CC5)c(C#N)c4)cc3)n2)CC1` [Compound A244], for which the IC50 in data set [7] is below 0.5 µM.

Take `CC(=O)N1CCN(c2nccc(COc3ccc(N(CC(F)(F)F)c4cc(Cl)c(OC5CC5)c(C#N)c4)cc3)n2)CC1` [Compound A245]: the half-maximal inhibitory concentration (IC50) in data set [7] was below 0.5 µM.

Take `CNC(=O)c1ccc(N2C(=S)N(c3ccc(C#N)c(C(F)(F)F)c3)C(=O)C2(C)C)cc1F` [Enzalutamide, enzalutamide, reference compound]: the half-life at 1 μM in data set [2], in data set [3], in data set [4], in data set [5] and in data set [6] was above 120 min throughout.

Regarding `CC(C)(c1ccc(OC[C@H](O)CNS(C)(=O)=O)cc1)c1cc(Cl)c(OC[C@H](O)CCl)c(Cl)c1` [X, reference compound], the half-life at 1 μM in data set [5] was above 120 min.
